Results as given in US12698262B2, “Potassium salt of 2-[(4S)-8-fluoro-2-[4-(3-methoxyphenyl)piperazin-1-yl]-3-[2-methoxy-5-(trifluoromethyl)phenyl]-4H-quinazolin-4-yl]acetic acid” (AIC246 AG & Co. KG, priority 2020, dated 2026).
Values joined by “and” are separate entries in the source; they are usually repeats but may differ in a detail not shown here. Equal entries are not always repeated.

Assay: Solubility test in buffers of different pHs (excess salt, HPLC determination of dissolved letermovir, final pH of mixture)
Type: physicochemical
Conditions: for Solubility / solubility at 2 h: stirred two hours at room temperature; for Solubility / Final pH / solubility at 2 h: Entries 1-3; for Final pH: final mixture; for solubility at 2 h: thermodynamic from solid
Method: Single Crystal X-ray Diffraction (SCXRD): The measured crystal was selected using a Zeiss stereomicroscope using polarized light and prepared under inert conditions immersed in perfluoropolyether as protecting oil for manipulation. Crystal structure determination was carried out using a Rigaku diffractometer equipped with a Pilatus 200K area detector, a Rigaku MicroMax-007HF microfocus rotating anode with MoKα radiation, Confocal Max Flux optics and an Oxford Cryosystems low temperature device Cryostream 700 plus (T=−173° C.). Full-sphere data collection was used with ω and φ scans. Programs used: Data collection and reduction with CrysAlisPro (Rigaku OD, 2015). V/0.60 A and absorption correction with Scale3 Abspack scaling algorithm (CrysAlisPro 1.171.39.12b (Rigaku OD, 2015)). Crystal structure solution was achieved using the computer program SHELXT (Sheldrick, G. M. Acta Cryst. 2015 A71, 3-8.) and visualized using the program SHELXle (C. B. Huebschle, G. M. Sheldrick & B. Dittrich; J. Appl. Cryst., 2011 44, 1281-1284). Missing atoms were subsequently located from difference Fourier synthesis and added to the atom list. Least-squares refinement on F0^2 using all measured intensities was carried out using the program SHELXL 2015 (SHELXL; Sheldrick, G. M. Acta Cryst., 2015 A71, 3-8.). All non-hydrogen atoms were refined including anisotropic displacement parameters. High Performance Liquid Chromatography (HPLC): • Instrument: Thermo Scientific Ultimate 3000 UHPLC • Column: Agilent Zorbax Eclipse XDB C-18, 150×4.6 mm, 5 μm • Flow rate: 1.0 ml/min • Solvent A: 0.1% formic acid in water • Solvent B: 0.1% formic acid in 100% methanol • Stop time: 27 minutes • Injection volume: 10 μl • Column temperature: 35° C. • Wavelength: 260 nm • Autosampler temperature: 10° C.
An excess of letermovir potassium mixed solvate (the salt of Example 1) or letermovir sodium mixed solvate (the salt of Example 4) was added to 2 mL of the corresponding buffer of different pHs. The saturated suspensions were stirred for two hours at room temperature. […] The final pH of the mixtures was also determined.

Structure (SMILES) | Solubility (buffer pH 2) [mg/mL] | Solubility (buffer pH 5) [mg/mL] | Solubility (buffer pH 6) [mg/mL] | Final pH (initial buffer pH 1) | Final pH (initial buffer pH 2) | Final pH (initial buffer pH 5) | Final pH (initial buffer pH 6) | Final pH (initial buffer pH 7) | Final pH (initial buffer pH 8) | Final pH (initial buffer pH 9) | solubility at 2 h (pH 2, simulated gastric fluid, buffer pH 2) [mg/mL] | solubility at 2 h (pH 5, aqueous buffer, buffer pH 5) [mg/mL] | solubility at 2 h (pH 6, aqueous buffer, buffer pH 6) [mg/mL] | solubility at 2 h (pH 8, aqueous buffer, buffer pH 8) [mg/mL] | solubility at 2 h (pH 9, aqueous buffer, buffer pH 9) [mg/mL] | pH of the final solution (aqueous medium, when letermovir concentration is above 100 mg/mL) | concentration levels achieved by dissolving in aqueous medium (aqueous medium, with respect to letermovir free base)
COc1cccc(N2CCN(C3=Nc4c(F)cccc4[C@H](CC(=O)[O-])N3c3cc(C(F)(F)F)ccc3OC)CC2)c1.[K+] (mixture of isomers) [potassium salt mixed solvate, potassium 2-[(4S)-8-fluoro-2-[4-(3-methoxyphenyl)piperazin-1-yl]-3-[2-methoxy-5-(trifluoromethyl)phenyl]-4H-quinazolin-4-yl]acetate] | 10.63 | 16.50 | 1.17 | 4.5 and 6.6 | 7.2 and 7.3 | 7.1 and 7.2 | 6.3 | 7.1 and 7.0 and 7.4 | 7.7 and 7.6 | 7.7 | 14.4 | 14.3 | 1.27 | > 100 | > 100 |  | 
COc1cccc(N2CCN(C3=Nc4c(F)cccc4[C@H](CC(=O)[O-])N3c3cc(C(F)(F)F)ccc3OC)CC2)c1.[K+] [crystalline potassium salt of letermovir, potassium 2-[(4S)-8-fluoro-2-[4-(3-methoxyphenyl)piperazin-1-yl]-3-[2-methoxy-5-(trifluoromethyl)phenyl]-4H-quinazolin-4-yl]acetate] |  |  |  |  |  |  |  |  |  |  |  |  |  |  |  | 7.4-7.8 and 7-8 | above 100 mg/mL
